Test results published in ChEMBL document CHEMBL4138291, “Mucroniferanines A-G, Isoquinoline Alkaloids from Corydalis mucronifera” (J Nat Prod, 2018).

Biological target: Acetylcholinesterase (Homo sapiens, UniProt P22303)
Assay: Inhibition of human erythrocyte AChE using S-acetylthiocholine iodide as substrate pretreated for 20 mins followed by substrate addition measured after 30 mins by Ellman's method

Chain of Acetylcholinesterase (P22303 whole entry): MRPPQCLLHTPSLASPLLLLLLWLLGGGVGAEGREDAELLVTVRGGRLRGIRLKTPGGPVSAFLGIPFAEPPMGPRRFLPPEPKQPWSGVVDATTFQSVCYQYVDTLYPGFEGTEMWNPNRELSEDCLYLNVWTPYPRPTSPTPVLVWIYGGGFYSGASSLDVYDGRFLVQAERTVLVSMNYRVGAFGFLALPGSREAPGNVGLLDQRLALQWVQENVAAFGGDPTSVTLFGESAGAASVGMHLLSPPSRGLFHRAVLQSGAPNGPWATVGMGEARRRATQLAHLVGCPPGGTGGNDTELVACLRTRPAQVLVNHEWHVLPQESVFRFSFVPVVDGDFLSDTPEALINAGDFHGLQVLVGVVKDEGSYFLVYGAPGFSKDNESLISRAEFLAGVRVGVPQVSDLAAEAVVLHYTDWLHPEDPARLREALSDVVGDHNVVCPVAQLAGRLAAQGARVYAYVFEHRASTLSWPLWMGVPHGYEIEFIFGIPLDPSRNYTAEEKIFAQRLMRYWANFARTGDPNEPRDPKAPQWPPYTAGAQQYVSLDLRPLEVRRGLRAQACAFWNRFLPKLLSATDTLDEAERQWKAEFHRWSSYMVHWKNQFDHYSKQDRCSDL

Compound | IC50
COc1ccc2c(c1O)CN1CCc3cc4c(cc3C1C2)OCO4 (configuration not stated) | > 100 µM
C[C@@]1(c2nccc3cc4c(cc23)OCO4)Oc2ccc3c(c2O1)OCO3 | > 100 µM
CO[C@@H]1O[C@](C)(c2nccc3cc4c(cc23)OCO4)c2ccc3c(c21)OCO3 | > 100 µM
CN1CCc2cc3c(cc2[C@H]1[C@H]1O[C@@H](O)c2c1ccc1c2OCO1)OCO3 | > 100 µM
CO[C@@H]1O[C@H]([C@@H]2c3cc4c(cc3CCN2C)OCO4)c2ccc3c(c21)OCO3 | > 100 µM
CO[C@@H]1O[C@@](C)(c2nccc3cc4c(cc23)OCO4)c2ccc3c(c21)OCO3 | > 100 µM
c1cc2cc3c(cc2c([C@H]2Oc4ccc5c(c4O2)OCO5)n1)OCO3 | 78.1 µM
CN1CCc2cc3c(cc2[C@H]1[C@H]1OC(=O)c2c1ccc1c2OCO1)OCO3 | > 100 µM
C[C@@H](c1ccc2c(c1O)OCO2)c1nccc2cc3c(cc12)OCO3 | > 100 µM
CO[C@H]1O[C@@](C)(c2nccc3cc4c(cc23)OCO4)c2ccc3c(c21)OCO3 | 28.3 µM
CN1CCc2cc3c(cc2C1=O)OCO3 | > 100 µM
C[C@]1(c2nccc3cc4c(cc23)OCO4)Oc2ccc3c(c2O1)OCO3 | > 100 µM
COC1c2c(ccc3c2OCO3)-c2ccc3cc4c(cc3c2N1C)OCO4 (configuration not stated) | 96.8 µM
c1cc2cc3c(cc2c([C@@H]2Oc4ccc5c(c4O2)OCO5)n1)OCO3 | > 100 µM
C[C@H](c1ccc2c(c1O)OCO2)c1nccc2cc3c(cc12)OCO3 | > 100 µM
CO[C@H]1O[C@](C)(c2nccc3cc4c(cc23)OCO4)c2ccc3c(c21)OCO3 | > 100 µM
CN1CCc2cc3c(cc2[C@@]12C(=O)c1ccc4c(c1[C@@H]2O)OCO4)OCO3 | > 100 µM
CN1CCc2cc3c(cc2C(=O)Cc2ccc4c(c2C1)OCO4)OCO3 | > 100 µM
CN1CCc2cc3c(cc2C12OCc1c(ccc4c1OCO4)C2=O)OCO3 (racemic) | > 100 µM
CC1(c2nccc3cc4c(cc23)OCO4)OC(O)c2c1ccc1c2OCO1 (single isomer, unassigned) | 11.3 µM
CC1(c2nccc3cc4c(cc23)OCO4)OC(O)c2c1ccc1c2OCO1 (single isomer, unassigned; epimer 1) | 12.2 µM
CN1Cc2c(ccc3c2OCO3)-c2ccc3cc4c(cc3c21)OCO4 [DIHYDROSANGUINARINE] | > 100 µM
